The nature of the series: Metabolic stability in mouse liver microsomes. Type of series: ADME, Microsome. Background: Liver microsomes are a subcellular fraction often used to study metabolism.

20 compounds from ChEMBL document CHEMBL1155068, “Balancing oral exposure with Cyp3A4 inhibition in benzimidazole-based IGF-IR inhibitors” (Bioorg Med Chem Lett, 2008) can be followed below.

Structures are written as SMILES.

Consider `Cc1cc(N2CCOCC2)cc2[nH]c(-c3c(NC[C@@H](O)c4cccc(Cl)c4)cc[nH]c3=O)nc12`, for which the Stability stood at 0.1 nmol/min/mg.

Compound `COCCOC(=O)N1CCN(C2CCN(c3cc(C)c4nc(-c5c(NC[C@@H](O)c6cccc(Cl)c6)cc[nH]c5=O)[nH]c4c3)CC2)CC1` had a Stability of less than 0.1 nmol/min/mg.

Compound `Cc1cc(N2CCC(N3CCN(C)CC3)CC2)cc2[nH]c(-c3c(NC[C@@H](O)c4cccc(Cl)c4)cc[nH]c3=O)nc12` displayed a Stability of less than 0.1 nmol/min/mg.

With `Cc1cc(N2CCC(N3CCN(C(=O)N4CCN(C)CC4)CC3)CC2)cc2[nH]c(-c3c(NC[C@@H](O)c4cccc(Cl)c4)cc[nH]c3=O)nc12`, the Stability is less than 0.1 nmol/min/mg.

For the compound `Cc1cc(N2CCC(N3CCN(C(=O)N4CCOCC4)CC3)CC2)cc2[nH]c(-c3c(NC[C@@H](O)c4cccc(Cl)c4)cc[nH]c3=O)nc12`, the Stability is less than 0.1 nmol/min/mg.

Turning to `Cc1cc(N2CCC(NC(=O)C3CC3)CC2)cc2[nH]c(-c3c(NC[C@@H](O)c4cccc(Cl)c4)cc[nH]c3=O)nc12`, the Stability amounted to 0.1 nmol/min/mg.

For `COCCOC1CCN(c2cc(C)c3nc(-c4c(NC[C@@H](O)c5cccc(Cl)c5)cc[nH]c4=O)[nH]c3c2)CC1`, the Stability came to 0.1 nmol/min/mg.

Turning to `Cc1cc(N2CCC(OCCO)CC2)cc2[nH]c(-c3c(NC[C@@H](O)c4cccc(Cl)c4)cc[nH]c3=O)nc12`, the Stability is more than 0.2 nmol/min/mg.

Compound `Cc1cc(N2CCC3(CC2)OCCO3)cc2[nH]c(-c3c(NC[C@@H](O)c4cccc(Cl)c4)cc[nH]c3=O)nc12` showed a Stability of 0.1 nmol/min/mg.

For the compound `Cc1cc(N2CCC(N3CCOCC3)CC2)cc2[nH]c(-c3c(NC[C@@H](O)c4cccc(Cl)c4)cc[nH]c3=O)nc12`, the Stability worked out at 0.1 nmol/min/mg.

`COCC(=O)N1CCN(C2CCN(c3cc(C)c4nc(-c5c(NC[C@@H](O)c6cccc(Cl)c6)cc[nH]c5=O)[nH]c4c3)CC2)CC1`: the Stability is less than 0.1 nmol/min/mg.

Compound `Cc1cc(N2CCC(N3C[C@@H](C)O[C@@H](C)C3)CC2)cc2[nH]c(-c3c(NC[C@@H](O)c4cccc(Cl)c4)cc[nH]c3=O)nc12` registered a Stability of less than 0.1 nmol/min/mg.

For `COCCOCC(=O)N1CCN(C2CCN(c3cc(C)c4nc(-c5c(NC[C@@H](O)c6cccc(Cl)c6)cc[nH]c5=O)[nH]c4c3)CC2)CC1`, the Stability was less than 0.1 nmol/min/mg.

Compound `Cc1cc(N2CCC(N3CCN(C(=O)OCCO)CC3)CC2)cc2[nH]c(-c3c(NC[C@@H](O)c4cccc(Cl)c4)cc[nH]c3=O)nc12` returned a Stability of less than 0.1 nmol/min/mg.

The compound `COC(=O)N1CCN(C2CCN(c3cc(C)c4nc(-c5c(NC[C@@H](O)c6cccc(Cl)c6)cc[nH]c5=O)[nH]c4c3)CC2)CC1` came in with a Stability of less than 0.1 nmol/min/mg.

Turning to `CC(=O)N1CCN(C2CCN(c3cc(C)c4nc(-c5c(NC[C@@H](O)c6cccc(Cl)c6)cc[nH]c5=O)[nH]c4c3)CC2)CC1`, the Stability was less than 0.1 nmol/min/mg.

As for `Cc1cc(N2CCC(N3CCN(C(=O)C4CC4)CC3)CC2)cc2[nH]c(-c3c(NC[C@@H](O)c4cccc(Cl)c4)cc[nH]c3=O)nc12`, the Stability is less than 0.1 nmol/min/mg.

Compound `COC1CCN(c2cc(C)c3nc(-c4c(NC[C@@H](O)c5cccc(Cl)c5)cc[nH]c4=O)[nH]c3c2)CC1` returned a Stability of more than 0.2 nmol/min/mg.

As for `Cc1cc(N2CCC(O)CC2)cc2[nH]c(-c3c(NC[C@@H](O)c4cccc(Cl)c4)cc[nH]c3=O)nc12`, the Stability amounted to 0.1 nmol/min/mg.

`COC(=O)NC1CCN(c2cc(C)c3nc(-c4c(NC[C@@H](O)c5cccc(Cl)c5)cc[nH]c4=O)[nH]c3c2)CC1` gave a Stability of 0.1 nmol/min/mg.
